Source: patent US20240400561A1, “NOVEL SUBSTITUTED SULFONYLUREA COMPOUNDS AS INHIBITORS OF INTERLEUKIN-1 ACTIVITY” (Viva Star Biosciences (Suzhou) Co., Ltd., priority 2021, published 2024)
pIC50: −log10 of the molar value.

Molecular target: T1, NLRP3 (Homo sapiens, UniProt Q96P20)
T1 construct: Seed THP-1 cells (5.56*10^5 cells/mL) containing 1.0 ug/mL LPS; endogenous in cells; host or cells: THP-1 cells
Assay: THP-1 cell assay (LPS priming, nigericin), IL1β release by HTRF; called pyroptosis assay, THP IC50
Format: cell-based
Details: NLRP3 inhibitory activity; THP-1 cells, 1.0 ug/mL LPS, compound 3 hrs, nigericin 5 uM 1 hr, IL1β in supernatant
Outline: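 THP-1 cells were primed with 1.0 ug/mL LPS in serum-free RPMI 1640 alongside compound (10 doses from 5 uM, 1:3) for 3 h at 37° C. Nigericin (final 5 uM) was then added for 1 h. Supernatant IL1β was quantified by HTRF against a standard curve, with IC50 from a four-parameter fit.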

T1 sequence (Q96P20 whole entry): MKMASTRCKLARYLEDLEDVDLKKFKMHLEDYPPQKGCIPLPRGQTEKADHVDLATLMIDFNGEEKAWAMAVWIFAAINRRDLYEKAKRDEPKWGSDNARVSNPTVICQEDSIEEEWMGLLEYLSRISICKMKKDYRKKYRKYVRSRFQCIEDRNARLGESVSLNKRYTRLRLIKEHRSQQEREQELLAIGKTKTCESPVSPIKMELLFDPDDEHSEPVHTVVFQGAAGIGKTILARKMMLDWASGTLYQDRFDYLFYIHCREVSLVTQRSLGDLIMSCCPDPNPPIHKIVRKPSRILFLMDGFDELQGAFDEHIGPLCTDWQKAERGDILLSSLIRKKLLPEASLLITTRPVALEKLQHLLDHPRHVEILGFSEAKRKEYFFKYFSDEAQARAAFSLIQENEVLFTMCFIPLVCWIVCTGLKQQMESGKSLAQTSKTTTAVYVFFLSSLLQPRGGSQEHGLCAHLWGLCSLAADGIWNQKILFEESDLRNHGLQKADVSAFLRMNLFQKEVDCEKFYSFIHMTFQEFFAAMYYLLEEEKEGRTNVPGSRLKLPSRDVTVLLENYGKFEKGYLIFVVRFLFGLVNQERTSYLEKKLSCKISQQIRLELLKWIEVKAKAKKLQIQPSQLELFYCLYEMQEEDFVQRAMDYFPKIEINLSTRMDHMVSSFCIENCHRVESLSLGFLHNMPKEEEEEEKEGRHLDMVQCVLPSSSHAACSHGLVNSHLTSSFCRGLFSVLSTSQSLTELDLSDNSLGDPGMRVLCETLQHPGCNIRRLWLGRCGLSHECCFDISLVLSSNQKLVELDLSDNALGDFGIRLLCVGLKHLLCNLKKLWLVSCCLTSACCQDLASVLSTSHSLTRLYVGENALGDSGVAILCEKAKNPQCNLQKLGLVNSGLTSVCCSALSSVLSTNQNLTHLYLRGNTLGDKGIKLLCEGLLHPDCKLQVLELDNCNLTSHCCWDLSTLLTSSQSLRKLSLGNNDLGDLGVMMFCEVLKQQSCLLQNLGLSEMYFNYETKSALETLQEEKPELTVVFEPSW

SMILES	pIC50
CC(C)(O)c1csc(S(=O)(=O)NC(=O)Nc2c(-c3ccn4nncc4c3)ccc3c2CCC3)c1 [Example 62, N-((5-([1,2,3]triazolo[1,5-a]pyridin-5-yl)-2,3-dihydro-1H-inden-4-yl)carbamoyl)-4-(2-hydroxypropan-2-yl)thiophene-2-sulfonamide]	6.52 to 7.52
CC(C)(O)c1csc(S(=O)(=O)NC(=O)Nc2c(-c3cnc4ccnn4c3)ccc3c2CCC3)c1 [Example 64, 4-(2-hydroxypropan-2-yl)-N-((5-(pyrazolo[1,5-a]pyrimidin-6-yl)-2,3-dihydro-1H-inden-4-yl)carbamoyl)thiophene-2-sulfonamide]	5.70 to 6.00
CC(C)(O)c1csc(S(=O)(=O)NC(=O)Nc2c(-c3ccc4nccn4c3)ccc3c2OCO3)c1 [Example 65, 4-(2-hydroxypropan-2-yl)-N-((5-(imidazo[1,2-a]pyridin-6-yl)benzo[d][1,3]dioxol-4-yl)carbamoyl)thiophene-2-sulfonamide]	6.52 to 7.52
Cc1c(-c2ccc3c(c2NC(=O)NS(=O)(=O)c2cc(C(C)(C)O)cs2)CCC3)ccn2ccnc12 [Example 72, 4-(2-hydroxypropan-2-yl)-N-((5-(8-methylimidazo[1,2-a]pyridin-7-yl)-2,3-dihydro-1H-inden-4-yl)carbamoyl)thiophene-2-sulfonamide]	6.52 to 7.52
Cc1c(-c2ccc3c(c2NC(=O)NS(=O)(=O)c2cc(C(C)(C)O)cs2)CCC3)ccn2cncc12 [Example 73, 4-(2-hydroxypropan-2-yl)-N-((5-(8-methylimidazo[1,5-a]pyridin-7-yl)-2,3-dihydro-1H-inden-4-yl)carbamoyl)thiophene-2-sulfonamide]	6.52 to 7.52
Cc1cc2c(c(NC(=O)NS(=O)(=O)C3CC(OC4CC4)C3)c1-c1ccn3nccc3c1)CCC2 (centres unmarked) [Example 75, 3-cyclopropoxy-N-((6-methyl-5-(pyrazolo[1,5-a]pyridin-5-yl)-2,3-dihydro-1H-inden-4-yl)carbamoyl)cyclobutane-1-sulfonamide]	6.52 to 7.52
Cc1cc2c(c(NC(=O)NS(=O)(=O)c3cc(CN(C)C)n(C4CC4)n3)c1-c1ccn3nccc3c1)CCC2 [Example 77, 1-cyclopropyl-5-((dimethylamino)methyl)-N-((6-methyl-5-(pyrazolo[1,5-a]pyridin-5-yl)-2,3-dihydro-1H-inden-4-yl)carbamoyl)-1H-pyrazole-3-sulfonamide]	6.52 to 7.52
Cc1cc2c(c(NC(=O)NS(=O)(=O)c3ccn(C[C@H](C)O)n3)c1-c1ccn3nccc3c1)CCC2 [Example 80, (S)-1-(2-hydroxypropyl)-N-((6-methyl-5-(pyrazolo[1,5-a]pyridin-5-yl)-2,3-dihydro-1H-inden-4-yl)carbamoyl)-1H-pyrazole-3-sulfonamide]	≥ 7.52
Cc1cc2c(c(NC(=O)NS(=O)(=O)c3cc(OC4CC4)cnn3)c1-c1ccn3nccc3c1)CCC2 [Example 81, 5-cyclopropoxy-N-((6-methyl-5-(pyrazolo[1,5-a]pyridin-5-yl)-2,3-dihydro-1H-inden-4-yl)carbamoyl)-1H-pyridazine-3-sulfonamide]	≥ 7.52
Cc1cc2c(c(NC(=O)NS(=O)(=O)c3ccn(C(C)C4CC4)n3)c1-c1ccn3nccc3c1)CCC2 (centres unmarked) [Example 82, 1-(1-cyclopropylethyl)-N-((6-methyl-5-(pyrazolo[1,5-a]pyridin-5-yl)-2,3-dihydro-1H-inden-4-yl)carbamoyl)-1H-pyrazole-3-sulfonamide]	6.00 to 6.52
Cc1cc2c(c(NC(=O)NS(=O)(=O)c3ccn(C4CC4)n3)c1-c1ccn3nccc3c1)OCC2 [Example 83, 1-cyclopropyl-N-((5-methyl-6-(pyrazolo[1,5-a]pyridin-5-yl)-2,3-dihydrobenzofuran-7-yl)carbamoyl)-1H-pyrazole-3-sulfonamide]	6.52 to 7.52
Cc1cc2c(c(NC(=O)NS(=O)(=O)c3cncc(C4CCC4)c3)c1-c1ccn3nccc3c1)CCC2 [Example 84, 5-cyclobutyl-N-((6-methyl-5-(pyrazolo[1,5-a]pyridin-5-yl)-2,3-dihydro-1H-inden-4-yl)carbamoyl)pyridine-3-sulfonamide]	≥ 7.52
Cc1cc2c(c(NC(=O)NS(=O)(=O)c3ccn(CC4CC4)n3)c1-c1ccn3nccc3c1)OCC2 [Example 86, 1-(cyclopropylmethyl)-N-((5-methyl-6-(pyrazolo[1,5-a]pyridin-5-yl)-2,3-dihydrobenzofuran-7-yl)carbamoyl)-1H-pyrazole-3-sulfonamide]	6.52 to 7.52
O=C(Nc1c2c(cc(F)c1-c1ccn3nccc3c1)CCO2)NS(=O)(=O)c1ccn(C2CC2)n1 [Example 87, 1-cyclopropyl-N-((5-fluoro-6-(pyrazolo[1,5-a]pyridin-5-yl)-2,3-dihydrobenzofuran-7-yl)carbamoyl) 1H-pyrazole-3-sulfonamide]	6.00 to 6.52
Cc1cc2cc(-c3c(C)cc4c(c3NC(=O)NS(=O)(=O)c3ccn(C5CC5)n3)CCC4)ccn2n1 [Example 88, 1-cyclopropyl-N-((6-methyl-5-(2-methylpyrazolo[1,5-a]pyridin-5-yl)-2,3-dihydro-1H-inden-4-yl)carbamoyl)-1H-pyrazole-3-sulfonamide]	≥ 7.52
O=C(Nc1c2c(cc(Cl)c1-c1ccn3nccc3c1)CCC2)NS(=O)(=O)c1ccn(C2CC2)n1 [Example 89, N-((6-chloro-5-(pyrazolo[1,5-a]pyridin-5-yl)-2,3-dihydro-1H-inden-4-yl)carbamoyl)-1-cyclopropyl-1H-pyrazole-3-sulfonamide]	≥ 7.52
Cc1cc2c(c(NC(=O)NS(=O)(=O)c3ccn(C[C@@H]4CCO4)n3)c1-c1ccn3nccc3c1)CCC2 [Example 91, (S)—N-((6-methyl-5-(pyrazolo[1,5-a]pyridin-5-yl)-2,3-dihydro-1H-inden-4-yl)carbamoyl)-1-(oxetan-2-ylmethyl)-1H-pyrazole-3-sulfonamide]	≥ 7.52
Cc1cc2c(c(NC(=O)NS(=O)(=O)c3ccn(C4CC4)n3)c1-c1ccc3ccnn3c1)CCC2 [Example 92, 1-cyclopropyl-N-((6-methyl-5-(pyrazolo[1,5-a]pyridin-6-yl)-2,3-dihydro-1H-inden-4-yl)carbamoyl)-1H-pyrazole-3-sulfonamide]	6.52 to 7.52
Cc1cc2c(c(NC(=O)NS(=O)(=O)c3ccn(C4CC4)n3)c1-c1ccn3cnnc3c1)CCC2 [Example 93, N-((5-([1,2,4]triazolo[4,3-a]pyridin-7-yl)-6-methyl-2,3-dihydro-1H-inden-4-yl)carbamoyl)-1-cyclopropyl-pyrazole-3-sulfonamide]	≥ 7.52

The next lines start with the values.

pIC50	SMILES
≥ 7.52	CC(C)(O)c1csc(S(=O)(=O)NC(=O)Nc2c(-c3ccn4cnnc4c3)ccc3c2CCC3)c1 [Example 63, N-((5-([1,2,4]triazolo[4,3-a]pyridin-7-yl)-2,3-dihydro-1H-inden-4-yl)carbamoyl)-4-(2-hydroxypropan-2-yl)thiophene-2-sulfonamide]
≥ 7.52	CC(C)(O)c1csc(S(=O)(=O)NC(=O)Nc2c(-c3ccn4ccnc4c3)ccc3c2OCO3)c1 [Example 66, 4-(2-hydroxypropan-2-yl)-N-((5-(imidazo[1,2-a]pyridin-7-yl)benzo[d][1,3]dioxol-4-yl)carbamoyl)thiophene-2-sulfonamide]
≥ 7.52	CC(C)(O)c1csc(S(=O)(=O)NC(=O)Nc2c(-c3ccc4ccnn4c3)ccc3c2CCC3)c1 [Example 68, 4-(2-hydroxypropan-2-yl)-N-((5-(pyrazolo[1,5-a]pyridin-6-yl)-2,3-dihydro-1H-inden-4-yl)carbamoyl)thiophene-2-sulfonamide]
≥ 7.52	Cc1cc2c(c(NC(=O)NS(=O)(=O)c3cc(C(C)(C)O)cs3)c1-c1ccn3cncc3c1)CCC2 [Example 69, 4-(2-hydroxypropan-2-yl)-N-((5-(imidazo[1,5-a]pyridin-7-yl)-6-methyl-2,3-dihydro-1H-inden-4-yl)carbamoyl)thiophene-2-sulfonamide]
≥ 7.52	Cc1cc2c(c(NC(=O)NS(=O)(=O)c3cc(C(C)(C)O)cs3)c1-c1ccn3nccc3c1)CCC2 [Example 70, 4-(2-hydroxypropan-2-yl)-N-((6-methyl-5-(pyrazolo[1,5-a]pyridin-5-yl)-2,3-dihydro-1H-inden-4-yl)carbamoyl)thiophene-2-sulfonamide]
≥ 7.52	CC(C)(O)c1csc(S(=O)(=O)NC(=O)Nc2c3c(cc(Cl)c2-c2ccn4cncc4c2)CCC3)c1 [Example 71, N-((6-chloro-5-(imidazo[1,5-a]pyridin-7-yl)-2,3-dihydro-1H-inden-4-yl)carbamoyl)-4-(2-hydroxypropan-2-yl)thiophene-2-sulfonamide]
≥ 7.52	Cc1cc2cc(-c3ccc4c(c3NC(=O)NS(=O)(=O)c3cc(C(C)(C)O)cs3)CCC4)ccn2n1 [Example 74, 4-(2-hydroxypropan-2-yl)-N-((5-(2-methylpyrazolo[1,5-a]pyridin-5-yl)-2,3-dihydro-1H-inden-4-yl)carbamoyl)thiophene-2-sulfonamide]
≥ 7.52	Cc1cc2c(c(NC(=O)NS(=O)(=O)c3ccn(C4CC(O)C4)n3)c1-c1ccn3nccc3c1)CCC2 (centres unmarked) [Example 76, 1-(3-hydroxycyclobutyl)-N-((6-methyl-5-(pyrazolo[1,5-a]pyridin-5-yl)-2,3-dihydro-1H-inden-4-yl)carbamoyl)-1H-pyrazole-3-sulfonamide]
≥ 7.52	Cc1cc2c(c(NC(=O)NS(=O)(=O)c3ccn(C4CC4)n3)c1-c1ccn3nncc3c1)CCC2 [Example 78, N-((5-([1,2,3]triazolo[1,5-a]pyridin-5-yl)-6-methyl-2,3-dihydro-1H-inden-4-yl)carbamoyl)-1-cyclopropyl-1H-pyrazole-3-sulfonamide]
≥ 7.52	Cc1cc2c(c(NC(=O)NS(=O)(=O)c3ccn(C[C@@H](C)O)n3)c1-c1ccn3nccc3c1)CCC2 [Example 79, (R)-1-(2-hydroxypropyl)-N-((6-methyl-5-(pyrazolo[1,5-a]pyridin-5-yl)-2,3-dihydro-1H-inden-4-yl)carbamoyl)-1H-pyrazole-3-sulfonamide]
